US8969397B2, “Systems and methods to treat pain locally” (Warsaw Orthopedic, Inc., priority 2004, dated 2015)

Tests used:
[1] = system: chronic constriction injury (CCl) of the sciatic nerve; assay: Thermal hyperalgesia test (paw withdrawal latency) after chronic constriction injury; format: in vivo, rat; settings: for mean paw withdrawal latency over baseline: Example 1, FIG. 2; for increase in paw withdrawal latency over baseline: 0.1 mg/kg
Protocol: (§1) The behavioral animal model of chronic constriction injury (“CCl”) was chosen to evaluate the efficacy of NFκB inhibitors as a pain treatment. This model may mimic pain associated with sciatica in humans. To induce CCl, each animal was anesthetized by intraperitoneal (“i.p.”) injection of sodium pentobarbital at a dose of 60 mg/kg body weight. The animal's right common sciatic nerve was exposed and freed from adherent tissue at mid-thigh by separating the muscle (biceps femoris) by blunt dissection. Four loose ligatures were placed 1 mm apart, using chromic gut (4-0 absorbable suture, Jorgensen Laboratories Inc., Loveland, Colo.).
Animal behavioral testing was conducted on Days 7, 14 and 21 after CCl. In the thermal hyperalgesia test, animals were placed in the clear plastic chamber of a plantar analgesia instrument and allowed to acclimate to the environment for 15 minutes. After the acclimation period, a radiant (heat) beam source stimulus was applied to the CCl hind paw of each animal. The heat source device was set at an intensity of 50, and a maximum latency period of 15 seconds was set to prevent tissue damage according to the recommendations of the instrument manufacturer. If a paw withdrawal occurred within the 15 second period, an automated control interrupted both the stimulus and timer, turning off the radiant beam and recording the latency of time to paw withdrawal. Data was analyzed using a one-way analysis of variance at each test day.
Specifically, the same methods as described above were used except that sulfasalazine was administered at doses of 5 mg/kg; 1 mg/kg or 0.2 mg/kg.
Following the previous experiment, the effect of local doses of clonidine on pain sensitivity was explored. Animals were administered vehicle or test substances through a subcutaneously implanted Alzet pump. Again, the previously described methods for CCl and paw withdrawal latency measurements were followed except that in the presently described experiment animals received either vehicle control; 1 μg/hour Enbrel® as a positive control; 0.01 μg/hour clonidine; 0.05 μg/hour clonidine; or 0.25 μg/hour clonidine.

[2] = system: chronic constriction injury (CCl) of the sciatic nerve; assay: Mechanical (tactile) allodynia, von Frey filaments, after chronic constriction injury; format: in vivo, rat; settings: for sensitivity in mechanical allodynia paradigm compared to controls: Example 3, FIG. 4, Days 8, 15 and 22 following CCl; for decrease in pain sensitivity, mechanical allodynia test / pain sensitivity in the mechanical allodynia test, in words: Example 4, FIG. 5B
Protocol: as §1
The ability of sulfasalazine to inhibit pain was also evaluated using a different sensitivity measure following CCl, namely mechanical (or tactile) allodynia. In this study, mechanical allodynia was determined in reaction to probing with von Frey filaments (Stoelting, Wood Dale, Ill.). Mechanical sensitivity was measured on Days 8, 15 and 22 following CCl by determining the median 50% foot withdrawal threshold for von Frey filaments using the up-down method described in Chaplan et al. (J Neurosci Methods 1994; 54:55) which is incorporated by reference herein for its teachings regarding the up-down method. Rats were placed under a plastic cover (9×9×20 cm) on a metal mesh floor. The area tested was the middle glabrous area between the footpads of the plantar surface of the injured hind paw within the L4 innervation area. The plantar area was touched with a series of 9 von Frey hairs with approximately exponentially incremental bending forces (von Frey values: 3.61, 3.8, 4.0, 4.2, 4.41, 4.6, 4.8, 5.0, and 5.2; equivalent to: 0.41, 0.63, 1.0, 1.58, 2.51, 4.07, 6.31, 10, and 15.8 g). The von Frey hair was presented perpendicular to the plantar surface with sufficient force to cause slight bending and held for approximately 3 to 4 seconds. Abrupt withdrawal of the foot (paw flinching) was recorded as a response. Any rat showing a mechanical threshold of more than 3.24 g was eliminated from the study.

[3] = rat, in vivo, 100 mg/kg
[4] = system: Complete Freund's Adjuvant (CFA) inflammatory pain model; settings: spinal administration; cited from earlier work

## Enbrel®
[1]; 3 mg/kg, test day 7
  mean paw withdrawal latency over baseline: about 60%
[1]; 3 mg/kg, test day 14
  mean paw withdrawal latency over baseline: ~63%
[1]; 3 mg/kg, test day 21
  mean paw withdrawal latency over baseline: ~75%
[1]; Example 2, FIG. 3, positive control, test day 7
  paw withdrawal latency over baseline: about 51%
[1]; Example 2, FIG. 3, positive control, test day 14
  paw withdrawal latency over baseline: ~63%
[1]; Example 2, FIG. 3, positive control, test day 21
  paw withdrawal latency over baseline: ~62%
[1]; Example 4, FIG. 5A, 3 mg/kg, all three test days
  paw withdrawal latency over baseline, average: about 51%
[1]; Example 5, FIG. 6, subcutaneously implanted Alzet pump, 1 μg/hour, test day 7
  paw withdrawal latency over baseline: about 45%
[1]; Example 5, FIG. 6, subcutaneously implanted Alzet pump, 1 μg/hour, test day 14
  paw withdrawal latency over baseline: about 60%
[1]; Example 5, FIG. 6, subcutaneously implanted Alzet pump, 1 μg/hour, test day 21
  paw withdrawal latency over baseline: ~71%
[2]
  sensitivity in mechanical allodynia paradigm compared to controls: decreased sensitivity

## Clc1cccc(Cl)c1N=C1NCCN1 [clonidine]
[1]; Example 4, FIG. 5A, test day 7
  increase in paw withdrawal latency over baseline: about 78%
[1]; Example 4, FIG. 5A, test day 21
  increase in paw withdrawal latency over baseline: ~61%
[1]; Example 4, FIG. 5A, test day 41
  increase in paw withdrawal latency over baseline: ~60%
[1]; Example 5, FIG. 6, subcutaneously implanted Alzet pump, 0.01 μg/hour, test day 7
  paw withdrawal latency over baseline: about 60%
[1]; Example 5, FIG. 6, subcutaneously implanted Alzet pump, 0.01 μg/hour, test day 14
  paw withdrawal latency over baseline: ~64%
[1]; Example 5, FIG. 6, subcutaneously implanted Alzet pump, 0.01 μg/hour, test day 21
  paw withdrawal latency over baseline: ~79%
[1]; Example 5, FIG. 6, subcutaneously implanted Alzet pump, 0.05 μg/hour, test day 7
  paw withdrawal latency over baseline: about 68%
[1]; Example 5, FIG. 6, subcutaneously implanted Alzet pump, 0.05 μg/hour, test day 14
  paw withdrawal latency over baseline: ~64%
[1]; Example 5, FIG. 6, subcutaneously implanted Alzet pump, 0.05 μg/hour, test day 21
  paw withdrawal latency over baseline: ~83%
[1]; Example 5, FIG. 6, subcutaneously implanted Alzet pump, 0.25 μg/hour, test day 7
  paw withdrawal latency over baseline: about 63%
[1]; Example 5, FIG. 6, subcutaneously implanted Alzet pump, 0.25 μg/hour, test day 14
  paw withdrawal latency over baseline: ~70%
[1]; Example 5, FIG. 6, subcutaneously implanted Alzet pump, 0.25 μg/hour, test day 21
  paw withdrawal latency over baseline: ~82%
[1]; Example 5, local dosing by pump
  dose reduction without loss of efficacy: 25 fold
[2]; 0.1 mg/kg, day 8
  decrease in pain sensitivity, mechanical allodynia test: about 58%
[2]; 0.1 mg/kg, day 15
  decrease in pain sensitivity, mechanical allodynia test: ~20%
[2]; 0.1 mg/kg, day 22
  decrease in pain sensitivity, mechanical allodynia test: ~48%
[2]; low dose (0.02 mg/kg), effect not as strong
  pain sensitivity in the mechanical allodynia test, in words: decreased sensitivity

## CC1=C(CC(=O)O)c2cc(F)ccc2/C1=C\c1ccc([S+](C)[O-])cc1 (centres unmarked) [sulindac]
[1]; Example 4, FIG. 5A, 2 mg/kg, all three test days
  paw withdrawal latency over baseline: about 65%
[1]; Example 4, FIG. 5A, 10 mg/kg, test day 7
  paw withdrawal latency over baseline: about 65%
[1]; Example 4, FIG. 5A, 10 mg/kg, test day 21
  paw withdrawal latency over baseline: about 75%
[1]; Example 4, FIG. 5A, 10 mg/kg, test day 41
  paw withdrawal latency over baseline: ~81%
[2]; 2 mg/kg, day 8
  decrease in pain sensitivity, mechanical allodynia test: about 66%
[2]; 2 mg/kg, day 15
  decrease in pain sensitivity, mechanical allodynia test: ~50%
[2]; 2 mg/kg, day 22
  decrease in pain sensitivity, mechanical allodynia test: ~35%
[2]; 10 mg/kg, day 8
  decrease in pain sensitivity, mechanical allodynia test: about 68%
[2]; 10 mg/kg, day 15
  decrease in pain sensitivity, mechanical allodynia test: about 58%
[2]; 10 mg/kg, day 22
  decrease in pain sensitivity, mechanical allodynia test: ~60%

## S=C(S)N1CCCC1 [PDTC, pyrollidinedithiocarbamate]
[1]; Example 4, FIG. 5A, 20 mg/kg or 100 mg/kg, not as effective as other NFκB inhibiting compounds
  paw withdrawal latencies versus control levels: did increase paw withdrawal latencies over control levels
[3]
  drug toxicity: removed from the study following the second day of testing due to drug toxicity
[2]; compared to animals receiving vehicle or Enbrel
  pain sensitivity in the mechanical allodynia test, in words: showed some effect in decreasing pain sensitivity
[4]
  mechanical allodynia: significantly reduce
  thermal hyperalgesia: significantly reduce

## O=C(O)c1cc(/N=N/c2ccc(S(=O)(=O)Nc3ccccn3)cc2)ccc1O [sulfasalazine]
[1]; 5 mg/kg, test day 7
  mean paw withdrawal latency over baseline: about 80%
[1]; 5 mg/kg, test day 14
  mean paw withdrawal latency over baseline: ~83%
[1]; 5 mg/kg, test day 21
  mean paw withdrawal latency over baseline: ~87%
[1]; 50 mg/kg, test day 7
  mean paw withdrawal latency over baseline: about 74%
[1]; 50 mg/kg, test day 14
  mean paw withdrawal latency over baseline: ~79%
[1]; 50 mg/kg, test day 21
  mean paw withdrawal latency over baseline: ~83%
[2]
  sensitivity in mechanical allodynia paradigm compared to controls: decreased sensitivity
